Paper PMC8480782, “Efficient Dimerization Disruption of Leishmania infantum Trypanothione Reductase by Triazole-phenyl-thiazoles” (Journal of Medicinal Chemistry, 2021)

How the values were obtained:
[1] = target: T1, LiTryR dimer (Leishmania infantum, UniProt A4HSF7); test: biochemical; details: 400 nM LiTryR, 16 h at 37 °C; read-out: IC50^dim, LiTryR monomer displacement (dimer quantitation ELISA)
T1 construct: made in house; host or cells: E. coli BL21 (DE3) Rossetta (co-transformed with both plasmids)
Method: The stability of the LiTryR dimeric form in the presence of 1,2,3-triazole-phenyl-thiazole-based compounds was evaluated using the novel enzyme-linked immunosorbent assay (ELISA) developed in our laboratory.[25] […] Next, the different solutions were centrifuged at 18 000g for 15 min at room temperature. The supernatants (200 μL/well) were added to the α-FLAG-coated plates (Sigma-Aldrich, St. Louis, MO) and incubated for 30 min at 37 °C with agitation in a humid atmosphere. The plates were washed five times with TTBS buffer (2 mM Tris, pH 7.6, 138 mM NaCl, and 0.1% Tween-20) and incubated with diluted monoclonal α-HIS horseradish peroxidase (HRP)-conjugated antibody (200 μL, 1:50 000, Abcam, Cambridge, U.K.) in fatty acid- and essentially globulin-free bovine serum albumin (BSA) (5%) prepared in TTBS buffer for 1 h at room temperature. The plates were washed five times, and o-phenylenediamine dihydrochloride (OPD) substrate prepared according to the manufacturer’s instructions was added. The enzymatic reaction was stopped after 5 min with H2SO4 (100 μL, […]), and the absorbances were measured at 490 nm in an EnSpire Multimode Plate Reader (PerkinElmer, Waltham, MA). All of the assays were conducted in triplicate in at least three independent experiments. Data were analyzed using a nonlinear regression model with GraFit 6 software (Erithacus, Horley, Surrey, U.K.).

[2] = target: T2, LiTryR (Leishmania infantum, UniProt A4HSF7); test: biochemical; type: biochemical; details: LiTryR; 1 μM TS2; maximum assayed 75 μM; read-out: IC50^act, TryR oxidoreductase activity
T2 construct: HIS (N); made in house; host or cells: E. coli BL21 (DE3) Rossetta
Method: A concentration of 1 μM TS2 was used for this initial screening. This low substrate concentration is sufficient for comparison of compound inhibitory activity in the oxidoreductase assay.
Recombinant L. infantum TryR (LiTryR) HIS-tagged and HIS-FLAG-tagged versions were used for all LiTryR oxidoreductase activity and dimer quantitation assays. These LiTryR versions were purified from Escherichia coli as previously described.[25] Briefly, pRSETA-HIS-LiTryR construct alone or in combination with the pET24a-FLAG-LiTryR construct was transformed into BL21 (DE3) Rossetta E. coli strain. An overnight E. coli culture grown at 37 °C in Luria–Bertani (LB) medium with the appropriate antibiotics and vigorous shaking was diluted (1:100) in the same medium and allowed to grow in the same conditions until the OD600 was 0.5. Then, LiTryR expression was induced by addition of 1 mM isopropyl-β-D-1-thiogalactopyranoside (IPTG) for 16 h at 26 °C. The cells were centrifuged for 5 min at 9000g and 4 °C and the wet pellet resuspended in lysis buffer (50 mM Tris, pH 7, 300 mM NaCl, 25 mM imidazole, protease inhibitor cocktail, and 1 mg/mL lysozyme). […] The supernatant was sonicated again as previously described for 10 min and loaded on a HisTrap column (GE Healthcare, Chicago, IL) for 16 h at 4 °C using a P-1 peristaltic pump (GE Healthcare, Chicago, IL). Once loaded, the HisTrap column was connected to an ÄKTA purifier UPC 10 (GE Healthcare, Chicago, IL) and washed using a 5–10% gradient between buffer A (50 mM Tris, pH 7 and 300 mM NaCl) and B (50 mM Tris, pH 7, 300 mM NaCl, and 500 mM imidazole). LiTryR was eluted using a 40% gradient between buffers A and B. Fractions containing recombinant LiTryR were pooled and loaded into a HiPrep 26/10 Desalting column (GE Healthcare, Chicago, IL) previously equilibrated with buffer A. Finally, LiTryR was concentrated to 2 mg/mL using an Amicon Ultra-15 50K (Merck Millipore, Burlington, MA) and an equal volume of glycerol was added before storing at −20 °C.
TryR oxidoreductase activity was determined spectrophotometrically using a modified version of the DTNB-coupled assay described by Hamilton et al.[52] Briefly, reactions were carried out at 26 °C in 250 μL of N-(2-hydroxyethyl)piperazine-N′-ethanesulfonic acid (HEPES) buffer (pH 7.5, 40 mM) containing ethylenediaminetetraacetic acid (EDTA) (1 mM), NADP^+ (30 μM), DTNB (25 μM), TS2 (1 μM), NADPH (150 μM), glycerol (0.02%), DMSO (1.75%), and recombinant TryR (7 nM). […] Reactions were started by addition of a mixture of NADPH and TS2.
TryR oxidoreductase activity was monitored at 26 °C by an increase in absorbance at 412 nm in an EnSpire Multimode Plate Reader (PerkinElmer, Waltham, MA). […] (TNB) concentration was obtained by multiplying the absorbance values by 100 (50 μM TNB generates 0.5 arbitrary units of absorbance at 412 nm). In this DTNB-coupled assay, one molecule of T(SH)2 reduces one molecule of DTNB, producing two TNB molecules. All of the assays were conducted in at least three independent experiments. Data were analyzed using a nonlinear regression model with GraFit 6 software (Erithacus, Horley, Surrey, U.K.).

T1 sequence (A4HSF7 1-491): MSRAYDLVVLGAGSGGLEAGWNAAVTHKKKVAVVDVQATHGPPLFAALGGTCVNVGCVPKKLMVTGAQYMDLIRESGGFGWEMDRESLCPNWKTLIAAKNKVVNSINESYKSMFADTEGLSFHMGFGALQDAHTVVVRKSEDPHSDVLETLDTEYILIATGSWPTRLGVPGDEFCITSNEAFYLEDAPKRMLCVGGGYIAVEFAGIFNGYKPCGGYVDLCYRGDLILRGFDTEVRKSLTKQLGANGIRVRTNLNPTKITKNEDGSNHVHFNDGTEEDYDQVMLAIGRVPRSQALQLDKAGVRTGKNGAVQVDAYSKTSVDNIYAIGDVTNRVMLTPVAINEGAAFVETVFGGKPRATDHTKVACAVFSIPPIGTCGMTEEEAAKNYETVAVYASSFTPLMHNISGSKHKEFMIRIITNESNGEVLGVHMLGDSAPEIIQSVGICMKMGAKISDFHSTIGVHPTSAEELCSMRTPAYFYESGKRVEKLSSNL
T2 sequence (A4HSF7 1-491): as above

SMILES: O=C(O)CCCc1cn(-c2ccc(-c3nc(CCc4ccccc4)cs3)c(OCCN3CCNC3=O)c2)nn1 [12g]
- IC50 [1]: > 75 µM
- IC50 [2]: > 75 µM
- melting point: 174.5 to 177.5 °C
